Assay results reported in US20050256132A1, “Use of ER selective NF-kB inhibitors for the treatment of sepsis” (priority 2003, published 2005).
Several values for one entry are separate records, joined by “and”; a condition that tells them apart may be missing. Equal entries are not always repeated.

Test system: Creatine Kinase
Experiment: Creatine kinase expression in Ad5-wt-ERα infected HAECT-1 cells (Table 1)
Assay type: cell-based, human
Settings: relative to the maximal stimulation observed with E2
Description: T-175 flasks of 100% confluent HAECT-1 cells (immortalized human aortic endothelial cells) were washed with 8 mL of HBSS (HEPES buffered saline solution) and infected for four hours with 6 mL of a 1:10 dilution of Ad5-wt-hERα virus (an adenovirus transfection vector that mediates CMV promoter driven expression of human ERα) in phenol red free Endothelial Cell Basal medium (Clonetics, San Diego Calif., Catalog # CC-3129) containing 0.25% bovine serum albumin (EBM-BSA). After four hours, cells were washed with EBM-BSA and incubated overnight in the same medium. Following overnight incubation, cells were washed with EBM-BSA and infected for 2 hours with 6 mL of a 1:10 dilution of Ad5-3x(NF-κB).Luc virus (Adenovirus luciferase expression vector driven by 3 repeats of the MHC NF-κb site 5′ to the thymidine kinase promoter) in EBM-BSA. […]
ERα infected HAECT-1 cells or control cells were thawed, diluted 42× in warm EBM-BSA, plated into 96-well plates at 0.1 mL/well and incubated for 4 hours at 34° C. […] Luciferase was determined on a Wallac Victor Luminometer (Gaithersburg, Md.) using 10 μL of lysate and mixing with 100 μL of Promega Luciferase Assay reagent. Creatine kinase was determined from the rate of increase in A340 following addition of 100 μL of CK assay reagent (Sigma, cat. No 47-10) to the remainder of the cell lysate. […]

## COc1ccccc1[C@H](c1cccc2ccccc12)[C@@](C)(C#N)C(=O)N1CCC(c2cccc(C(F)(F)F)c2)CC1 [Example 67, (S,S)-3-(2-methoxyphenyl)-2-methyl-3-(1-naphthyl)-2-({4-[3-(trifluoromethyl)phenyl]piperidin-1-yl}carbonyl)propanenitrile]
  Creatine Kinase Efficacy: 41% and 58%
